# Where two headings read alike, the source gives them in different places.
# Tested on: M abscessus ATCC 19977 Type strain
# Assay: checkerboard minimum inhibitory concentration (MIC) assay with FICI calculation
# Assay type: cell-based
# Conditions: for MIC: 168 h; for Active Agent-Y MIC Combination: MIC of the labelled Antiinfective-Y in combination with amikacin; for Definition (interpretation of FICI) / FICI (Fractional Inhibitory Concentration Index): labelled Antiinfective-Y in combination with amikacin
# [1] = read-out: Active Agent-Y MIC Alone
# [2] = Antiinfective-Y alone, M abscessus ATCC 19977, 37° C., 7 days, absorbance 595 nm, read-out: Active Agent-Y MIC Alone
compound,measurement,setting,value
NCC[C@H](O)C(=O)N[C@@H]1C[C@H](N)[C@@H](O[C@H]2O[C@H](CN)[C@@H](O)[C@H](O)[C@H]2O)[C@H](O)[C@H]1O[C@H]1O[C@H](CO)[C@@H](O)[C@H](N)[C@H]1O [Amikacin],MIC,"amikacin alone (column 12 of the checkerboard plate run with the row's Antiinfective-Y), M abscessus ATCC 19977, 37° C., 7 days, absorbance 595 nm, read-out: Amikacin (Active Agent-X) MIC Alone",2 µg/mL
same,Amikacin (Active Agent-X) MIC Alone,"amikacin alone (column 12 of the checkerboard plate run with the row's Antiinfective-Y), M abscessus ATCC 19977, 37° C., 7 days, absorbance 595 nm",1 µg/mL
COc1nc2ccc(Br)cc2cc1[C@@H](c1ccccc1)[C@@](O)(CCN(C)C)c1cccc2ccccc12 [Bedaquiline],MIC,[1],2 µg/mL
same,Active Agent-Y MIC Combination,"M abscessus ATCC 19977, 7 days",0.125 µg/mL
same,Definition (interpretation of FICI),M abscessus ATCC 19977,Synergy (<0.5)
same,FICI (Fractional Inhibitory Concentration Index),M abscessus ATCC 19977,0.09
C[C@@H](O)[C@H]1C(=O)N2C(C(=O)[O-])=C(SC3Cn4cnc[n+]4C3)[C@H](C)[C@H]12 (some centres unmarked) [Biapenem],MIC,[2],8 µg/mL
same,Active Agent-Y MIC Combination,"M abscessus ATCC 19977, 7 days",0.0625 µg/mL
same,Definition (interpretation of FICI),M abscessus ATCC 19977,Synergy (<0.5)
same,FICI (Fractional Inhibitory Concentration Index),M abscessus ATCC 19977,0.07
C=CC1=C(C(=O)O)N2C(=O)[C@@H](NC(=O)/C(=N\O)c3csc(N)n3)[C@H]2SC1 [Cefdinir],MIC,[2],8 µg/mL
same,Active Agent-Y MIC Combination,"M abscessus ATCC 19977, 7 days",0.5 µg/mL
same,Definition (interpretation of FICI),M abscessus ATCC 19977,Synergy (<0.5)
same,FICI (Fractional Inhibitory Concentration Index),M abscessus ATCC 19977,0.13
CC[C@H]1OC(=O)[C@H](C)[C@@H](O[C@H]2C[C@@](C)(OC)[C@@H](O)[C@H](C)O2)[C@H](C)[C@@H](O[C@@H]2O[C@H](C)C[C@H](N(C)C)[C@H]2O)[C@](C)(OC)C[C@@H](C)C(=O)[C@H](C)[C@@H](O)[C@]1(C)O [Clarithromycin],MIC,[2],0.5 µg/mL
same,Active Agent-Y MIC Combination,"M abscessus ATCC 19977, 7 days",0.25 µg/mL
same,Definition (interpretation of FICI),M abscessus ATCC 19977,Additive
same,FICI (Fractional Inhibitory Concentration Index),M abscessus ATCC 19977,2.50
CC(C)/N=c1\cc2n(-c3ccc(Cl)cc3)c3ccccc3nc-2cc1Nc1ccc(Cl)cc1 [Clofazimine],MIC,[1],2 µg/mL
same,Active Agent-Y MIC Combination,"M abscessus ATCC 19977, 7 days",0.0625 µg/mL
same,Definition (interpretation of FICI),M abscessus ATCC 19977,Synergy (<0.5)
same,FICI (Fractional Inhibitory Concentration Index),M abscessus ATCC 19977,0.16
C[C@@H](O)[C@H]1C(=O)N2C(C(=O)O)=C(S[C@@H]3CN[C@H](CNS(N)(=O)=O)C3)[C@H](C)[C@H]12 [Doripenem],MIC,[2],4 µg/mL
same,Active Agent-Y MIC Combination,"M abscessus ATCC 19977, 7 days",0.25 µg/mL
same,Definition (interpretation of FICI),M abscessus ATCC 19977,Synergy (<0.5)
same,FICI (Fractional Inhibitory Concentration Index),M abscessus ATCC 19977,0.31
CC[C@@H](CO)NCCN[C@@H](CC)CO [Ethambutol],MIC,[1],16 µg/mL
same,Active Agent-Y MIC Combination,"M abscessus ATCC 19977, 7 days",4 µg/mL
same,Definition (interpretation of FICI),M abscessus ATCC 19977,Synergy (<0.5)
same,FICI (Fractional Inhibitory Concentration Index),M abscessus ATCC 19977,0.38
C[C@@H](O)[C@H]1C(=O)N2C(C(=O)O)=C(SCCN=CN)C[C@H]12 [Imipenem],MIC,[2],2 µg/mL
same,Active Agent-Y MIC Combination,"M abscessus ATCC 19977, 7 days",0.25 µg/mL
same,Definition (interpretation of FICI),M abscessus ATCC 19977,Synergy (<0.5)
same,FICI (Fractional Inhibitory Concentration Index),M abscessus ATCC 19977,0.38
C[C@H]1COc2c(N3CCN(C)CC3)c(F)cc3c(=O)c(C(=O)O)cn1c23 [Levofloxacin],MIC,[1],4 µg/mL
same,Active Agent-Y MIC Combination,"M abscessus ATCC 19977, 7 days",0.0625 µg/mL
same,Definition (interpretation of FICI),M abscessus ATCC 19977,Synergy (<0.5)
same,FICI (Fractional Inhibitory Concentration Index),M abscessus ATCC 19977,0.14
CC(=O)NC[C@H]1CN(c2ccc(N3CCOCC3)c(F)c2)C(=O)O1 [Linezolid],MIC,[2],2 µg/mL
same,Active Agent-Y MIC Combination,"M abscessus ATCC 19977, 7 days",2 µg/mL
same,Definition (interpretation of FICI),M abscessus ATCC 19977,Additive
same,FICI (Fractional Inhibitory Concentration Index),M abscessus ATCC 19977,3.00
COc1c(N2C[C@@H]3CCCN[C@@H]3C2)c(F)cc2c(=O)c(C(=O)O)cn(C3CC3)c12 [Moxifloxacin],MIC,[1],1 µg/mL
same,Active Agent-Y MIC Combination,"M abscessus ATCC 19977, 7 days",0.125 µg/mL
same,Definition (interpretation of FICI),M abscessus ATCC 19977,Synergy (<0.5)
same,FICI (Fractional Inhibitory Concentration Index),M abscessus ATCC 19977,0.38
CO[C@H]1/C=C/O[C@@]2(C)Oc3c(C)c(O)c4c(c3C2=O)C2=NC3(CCN(CC(C)C)CC3)NC2=C(NC(=O)/C(C)=C\C=C\[C@H](C)[C@H](O)[C@@H](C)[C@@H](O)[C@@H](C)[C@H](OC(C)=O)[C@@H]1C)C4=O [Rifabutin],MIC,[2],1 µg/mL
same,Active Agent-Y MIC Combination,"M abscessus ATCC 19977, 7 days",0.0625 µg/mL
same,Definition (interpretation of FICI),M abscessus ATCC 19977,Synergy (<0.5)
same,FICI (Fractional Inhibitory Concentration Index),M abscessus ATCC 19977,0.31
CO[C@H]1/C=C/O[C@@]2(C)Oc3c(C)c(O)c4c(O)c(c(/C=N/N5CCN(C)CC5)c(O)c4c3C2=O)NC(=O)/C(C)=C\C=C\[C@H](C)[C@H](O)[C@@H](C)[C@@H](O)[C@@H](C)[C@H](OC(C)=O)[C@@H]1C [Rifampicin],MIC,[1],8 µg/mL
same,Active Agent-Y MIC Combination,"M abscessus ATCC 19977, 7 days",0.5 µg/mL
same,Definition (interpretation of FICI),M abscessus ATCC 19977,Synergy (<0.5)
same,FICI (Fractional Inhibitory Concentration Index),M abscessus ATCC 19977,0.31
C[C@@H](O)[C@H]1C(=O)N2C(C(=O)O)=C(SC3CN(C4=NCCS4)C3)[C@H](C)[C@H]12 [Tebipenem],MIC,[2],8 µg/mL
same,Active Agent-Y MIC Combination,"M abscessus ATCC 19977, 7 days",0.25 µg/mL
same,Definition (interpretation of FICI),M abscessus ATCC 19977,Synergy (<0.5)
same,FICI (Fractional Inhibitory Concentration Index),M abscessus ATCC 19977,0.28
Cn1nnc(-c2ccc(-c3ccc(N4C[C@H](CO)OC4=O)cc3F)cn2)n1 [Tedizolid],MIC,[2],0.5 µg/mL
same,Active Agent-Y MIC Combination,"M abscessus ATCC 19977, 7 days",0.5 µg/mL
same,Definition (interpretation of FICI),M abscessus ATCC 19977,Additive
same,FICI (Fractional Inhibitory Concentration Index),M abscessus ATCC 19977,3.00
COc1ccc2cc1Oc1ccc(cc1)C[C@H]1c3cc(c(OC)cc3CCN1C)Oc1c(OC)c(OC)cc3c1[C@H](C2)N(C)CC3 [Tetrandrine],MIC,[1],64 µg/mL
same,Active Agent-Y MIC Combination,"M abscessus ATCC 19977, 7 days",8 µg/mL
same,Definition (interpretation of FICI),M abscessus ATCC 19977,Synergy (<0.5)
same,FICI (Fractional Inhibitory Concentration Index),M abscessus ATCC 19977,0.25
CN(C)c1cc(NC(=O)CNC(C)(C)C)c(O)c2c1C[C@H]1C[C@H]3[C@H](N(C)C)C(O)=C(C(N)=O)C(=O)[C@@]3(O)C(O)=C1C2=O [Tigecycline],MIC,[1],2 µg/mL
same,Active Agent-Y MIC Combination,"M abscessus ATCC 19977, 7 days",0.5 µg/mL
same,Definition (interpretation of FICI),M abscessus ATCC 19977,Additive
same,FICI (Fractional Inhibitory Concentration Index),M abscessus ATCC 19977,0.75
CN[C@H](CC(C)C)C(=O)N[C@H]1C(=O)N[C@@H](CC(N)=O)C(=O)N[C@H]2C(=O)N[C@H]3C(=O)N[C@H](C(=O)N[C@H](C(=O)O)c4cc(O)cc(O)c4-c4cc3ccc4O)[C@H](O)c3ccc(c(Cl)c3)Oc3cc2cc(c3O[C@@H]2O[C@H](CO)[C@@H](O)[C@H](O)[C@H]2O[C@H]2C[C@](C)(N)[C@H](O)[C@H](C)O2)Oc2ccc(cc2Cl)[C@H]1O [Vancomycin],MIC,[1],4 µg/mL
same,Active Agent-Y MIC Combination,"M abscessus ATCC 19977, 7 days",1 µg/mL
same,Definition (interpretation of FICI),M abscessus ATCC 19977,Additive
same,FICI (Fractional Inhibitory Concentration Index),M abscessus ATCC 19977,0.50

# From US20250082570A1, “COMBINATION THERAPY FOR TREATING NON-TUBERCULOUS MYCOBACTERIAL LUNG DISEASE” (priority 2021, published 2025)
